According to patent US20230339836A1, “METHOD FOR PRODUCING REDUCED COENZYME Q10 FORM II CRYSTALS” (KANEKA CORPORATION, priority 2020, published 2023):

Experiments:
[1] = compared with oxidized coenzyme Q10; cited from earlier work
[2] = Solubility (saturated concentration) of reduced coenzyme Q10 crystals in hydrous ethanol, HPLC of filtered liquid phase; format: physicochemical
Procedure: The dissolved concentration of reduced coenzyme Q10 in a liquid phase was measured by analyze a liquid phase sample by high performance liquid chromatography under the following conditions.
• Column: SYMMETRY C18 (manufactured by Waters); 250 mm (length), 4.6 mm (inner diameter) • Mobile phase: C2H5OH:CH3OH=4:3 (v:v) • Detection wavelength: 210 nm • Flow rate: 1 ml/min • Retention time of reduced coenzyme Q10: 9.1 min.
The solubility (saturated concentration) (% by weight) of each of a reduced coenzyme Q10 Form I-type crystal (Form I-type crystal) and a reduced coenzyme Q10 Form II-type crystal (Form II-type crystal) in hydrous ethanol with an ethanol concentration per total volume of 99.5% (v/v), 95% (v/v), and 90% (v/v) at temperatures of 298.15K (25° C.), 303.15K (30° C.), 308.15K (35° C.), and 313.15K (40° C.) was obtained.
The solubility was measured by the following procedures.
To approximately 30 g of each hydrous ethanol, approximately 10 g of a Form I-type crystal or a Form II-type crystal was added, the mixture was stirred under a nitrogen atmosphere and maintained for approximately 1 hour at temperatures of 25° C., 30° C., 35° C., and 40° C. Sampling was performed at each temperature and each sample was filtered quickly to obtain a liquid phase sample. Each sample was analyzed under the above HPLC conditions and the solubility was calculated.

[3] = Saturated concentration calculated from Expressions 3 to 8 for 99.5% (v/v) ethanol; format: physicochemical; conditions: calculated by Expressions 7 and 8, natural logarithm
Description: Further, the ethanol concentration of 99.5% (v/v) was assigned to Z of Expressions 3, 4, 5, and 6 to obtain the values of the constants AI, BI, AII, and BII. Using these constants, the Log CI of the saturated concentration CI (% by weight) of the Form I-type crystal and the Log CII of the saturated concentration CII (% by weight) of the Form II-type crystal were obtained at each temperature (converting the unit to Kelvin) shown in Table 5 according to Expressions 7 and 8 above.

[4] = compared with Form I-type crystal; Patent Literature 4; cited from earlier work
[5] = 90% (v/v) ethanol, 298.15 K (25° C.)
[6] = 90% (v/v) ethanol, 303.15 K (30° C.)
[7] = 90% (v/v) ethanol, 308.15 K (35° C.)
[8] = 90% (v/v) ethanol, 313.15 K (40° C.)
[9] = 95% (v/v) ethanol, 298.15 K (25° C.)
[10] = 95% (v/v) ethanol, 303.15 K (30° C.)
[11] = 95% (v/v) ethanol, 308.15 K (35° C.)
[12] = 95% (v/v) ethanol, 313.15 K (40° C.)
[13] = 99.5% (v/v) ethanol, 298.15 K (25° C.)
[14] = 99.5% (v/v) ethanol, 303.15 K (30° C.)
[15] = 99.5% (v/v) ethanol, 308.15 K (35° C.)
[16] = 99.5% (v/v) ethanol, 313.15 K (40° C.)

Compound	Oral absorbability [1]	Solubility [2, 5] [% by weight]	Solubility [2, 6] [% by weight]	Solubility [2, 7] [% by weight]	Solubility [2, 8] [% by weight]	Solubility [2, 9] [% by weight]	Solubility [2, 10] [% by weight]	Solubility [2, 11] [% by weight]	Solubility [2, 12] [% by weight]	Solubility [2, 13] [% by weight]	Solubility [2, 14] [% by weight]	Solubility [2, 15] [% by weight]	Solubility [2, 16] [% by weight]	Solubility compared between crystal forms ([2]; hydrous ethanol with any concentration (99.5, 95, 90% v/v))	Log of saturated concentration (% by weight) ([3]; 10° C.)	Log of saturated concentration (% by weight) ([3]; 20° C.)	Log of saturated concentration (% by weight) ([3]; 25° C.)	Log of saturated concentration (% by weight) ([3]; 30° C.)	Log of saturated concentration (% by weight) ([3]; 35° C.)	Stability of crystal form [4]
COc1c(O)c(C)c(C/C=C(\C)CC/C=C(\C)CC/C=C(\C)CC/C=C(\C)CC/C=C(\C)CC/C=C(\C)CC/C=C(\C)CC/C=C(\C)CC/C=C(\C)CCC=C(C)C)c(O)c1OC [reduced coenzyme Q10]	higher oral absorbability than that of oxidized coenzyme Q10																			
COc1c(O)c(C)c(C/C=C(\C)CC/C=C(\C)CC/C=C(\C)CC/C=C(\C)CC/C=C(\C)CC/C=C(\C)CC/C=C(\C)CC/C=C(\C)CC/C=C(\C)CCC=C(C)C)c(O)c1OC [Form I, reduced coenzyme Q10]		0.13	0.18	0.29	0.88	0.65	1.01	2.33	8.98	2.01	4.53	12.6	46.3	higher than that of the Form II-type crystal	−2.686	−0.584	0.467	1.517	2.568	
COc1c(O)c(C)c(C/C=C(\C)CC/C=C(\C)CC/C=C(\C)CC/C=C(\C)CC/C=C(\C)CC/C=C(\C)CC/C=C(\C)CC/C=C(\C)CC/C=C(\C)CCC=C(C)C)c(O)c1OC [Form II, reduced coenzyme Q10]		0.10	0.13	0.23	0.41	0.37	0.52	0.86	2.81	1.22	2.32	5.51	17.9		−3.858	−2.145	−1.288	−0.432	0.425	much more stable than the conventional reduced coenzyme Q10
